Test results from patent US8568802B2, “Process for producing enriched fractions of tetrahydroxycurcumin and tetrahydrotetrahydroxy-curcumin from the extracts of Curcuma longa” (Laila Impex, priority 2005, dated 2013).
Each block holds one compound with its values, some of them ahead of it.

Legend:
[1] = test system: carrageenin induced paw edema; assay: Anti-inflammatory activity (carragenin induced paw edema method); type: in vivo, Albino wistar rats; conditions: at 25 mg concentration, oral, paw volume 3 h after carrageenin
Protocol: The invention also describes use of enriched tetrahydroxycurcumin fraction containing 70-100% of TC for treating anti-inflammatory conditions.
Anti-inflammatory activity (Carragenin induced paw edema method): Prior to the experiment all the animals (Albino wistar rats of either sex weighing between 180-300 g) fasted at ad libitum water and were weighed, numbered and randomly divided into groups, each containing 3 animals. Initial paw volumes were measured using plethesmometer and noted. All the groups were treated with corresponding test substance orally using gastric tube. Control group was treated with 10 mL/Kg vehicle (0.5%, carboxymethyl cellulose sodium salt). After 30 minutes, all the animals were injected subcutaneously at subplantar region of left hind paw 1% carrageenin 0.1 mL using hypodermic needle. All the animals were administered water 20 mL/Kg body weight and kept devoid of water for 3 h (maintained uniform hydration). After 3 h, paw volumes of all the animals were measured twice and average volume from two measurements were recorded. The % of inhibition of paw edema was calculated by comparing paw edema of test substance treated groups with that of control groups.

5-Lipoxygenase = 5-Lipoxygenase inhibitory activity (colorimetric, ferric xylenol orange); type: biochemical
Protocol: 5-Lipoxygenase activity: The enriched fraction of tetrahydroxycurcumin mixture, pure TC and tetrahydrotetrahydroxycurcumin fraction were screened for their 5-Lipoxygenase inhibitory potential using colorimetric method. The assay mixture contained 50 mM phosphate buffer pH 6.3, 5-Lipoxygenase, various concentrations of test substances in dimethyl sulphoxide and linoleic acid in a total volume of 0.5 mL, after 5 min incubation of above reaction mixture, 0.5 mL ferric xylenol orange reagent was added and OD was measured after two minutes at 585 nm using spectrophotometer. […] Percent inhibition was calculated by comparing absorbance of test solution with that of control.

Compound: O=C(O)Cc1ccccc1Nc1c(Cl)cccc1Cl [diclofenac sodium]
% inhibition of paw edema [1]: 63.10%

Compound: CC(Cc1ccc(O)c(O)c1)C(C)Cc1ccc(O)c(O)c1 (centres unmarked) [NDGA, Nordihydroguaiaretic acid]
% of inhibition (5-Lipoxygenase) (5-Lipoxygenase; concentration 24 μg/mL): 60%

% of inhibition (5-Lipoxygenase) (5-Lipoxygenase; concentration 16 μg/mL): 60% | melting point: 302 to 304 °C
Compound: O=C(/C=C/c1ccc(O)c(O)c1)CC(=O)/C=C/c1ccc(O)c(O)c1 [Pure tetrahydroxycurcumin (TC), 1,7-Bis(3,4-dihydroxyphenyl)-1,6-heptadiene-3,5-dione]

% of inhibition (5-Lipoxygenase) (5-Lipoxygenase; concentration 41 μg/mL): 55%
Compound: Acetyl-keto-boswellic acid [AKBA]
